For the data set, the system named is CCRIS mutagenicity, Ames/micronucleus/aberration tests. The data set can be described thus: CCRIS mutagenicity studies.
Setting [1] is: Test System: AMES SALMONELLA TYPHIMURIUM, Strain/Indicator: TA97, Metabolic Activation: NONE, Method: PREINCUBATION
The mark [2] stands for this setting: Test System: AMES SALMONELLA TYPHIMURIUM, Strain/Indicator: TA97, Metabolic Activation: RAT, LIVER, S-9, AROCLOR 1254, Method: PREINCUBATION
Where [3] appears, read: Test System: AMES SALMONELLA TYPHIMURIUM, Strain/Indicator: TA98, Metabolic Activation: NONE, Method: PREINCUBATION
Setting [4] is: Test System: AMES SALMONELLA TYPHIMURIUM, Strain/Indicator: TA100, Metabolic Activation: NONE, Method: PREINCUBATION
Where [5] appears, read: Test System: AMES SALMONELLA TYPHIMURIUM, Strain/Indicator: TA102, Metabolic Activation: NONE, Method: PREINCUBATION
Where [6] appears, read: Test System: AMES SALMONELLA TYPHIMURIUM, Strain/Indicator: TA102, Metabolic Activation: RAT, LIVER, S-9, AROCLOR 1254, Method: PREINCUBATION
Where [7] appears, read: Test System: AMES SALMONELLA TYPHIMURIUM, Strain/Indicator: TA1535, Metabolic Activation: NONE, Method: PREINCUBATION
[8] abbreviates: Test System: AMES SALMONELLA TYPHIMURIUM, Strain/Indicator: TA98, Metabolic Activation: NONE, Method: STANDARD PLATE.
The mark [9] stands for this setting: Test System: AMES SALMONELLA TYPHIMURIUM, Strain/Indicator: TA100, Metabolic Activation: NONE, Method: STANDARD PLATE.

In PubChem BioAssay AID1259407 (Chemical Carcinogenesis Research Information System (CCRIS), 2018) one finds mutagenic call data, which are given here for 7 compounds.

The structures appear in SMILES notation. Active and inactive are the calls of the source. The rule behind the calls is not given here.

In the case of `O=C(O)/C=C/C(=O)O`, the mutagenic call runs as follows: (Test System: AMES SALMONELLA TYPHIMURIUM, Strain/Indicator: TA97, Metabolic Activation: HAMSTER, LIVER, S-9, AROCLOR 1254 (10 OR 30%), Method: PREINCUBATION) “inactive; negative”; under setting [1], “inactive; negative”; (Test System: AMES SALMONELLA TYPHIMURIUM, Strain/Indicator: TA97, Metabolic Activation: RAT, LIVER, S-9, AROCLOR 1254 (10 OR 30%), Method: PREINCUBATION) “inactive; negative”; under setting [2], “inactive; negative”; (Test System: AMES SALMONELLA TYPHIMURIUM, Strain/Indicator: TA98, Metabolic Activation: HAMSTER, LIVER, S-9, AROCLOR 1254 (10 OR 30%), Method: PREINCUBATION) “inactive; negative”; under setting [3], “inactive; negative”. Besides, the mutagenic call (Test System: AMES SALMONELLA TYPHIMURIUM, Strain/Indicator: TA98, Metabolic Activation: RAT, LIVER, S-9, AROCLOR 1254 (10 OR 30%), Method: PREINCUBATION) was “inactive; negative”; the mutagenic call (Test System: AMES SALMONELLA TYPHIMURIUM, Strain/Indicator: TA100, Metabolic Activation: HAMSTER, LIVER, S-9, AROCLOR 1254 (10 OR 30%), Method: PREINCUBATION) is “inactive; negative”; the mutagenic call under setting [4] was “inactive; negative”; the mutagenic call (Test System: AMES SALMONELLA TYPHIMURIUM, Strain/Indicator: TA100, Metabolic Activation: RAT, LIVER, S-9, AROCLOR 1254 (10 OR 30%), Method: PREINCUBATION) is “inactive; negative”; the mutagenic call under setting [5] is “inactive; negative”; the mutagenic call under setting [6] is “inactive; negative”. Moreover, the mutagenic call (Test System: AMES SALMONELLA TYPHIMURIUM, Strain/Indicator: TA1535, Metabolic Activation: HAMSTER, LIVER, S-9, AROCLOR 1254 (10 OR 30%), Method: PREINCUBATION) is “inactive; negative”; the mutagenic call under setting [7] was “inactive; negative”; the mutagenic call (Test System: AMES SALMONELLA TYPHIMURIUM, Strain/Indicator: TA1535, Metabolic Activation: RAT, LIVER, S-9, AROCLOR 1254 (10 OR 30%), Method: PREINCUBATION) was “inactive; negative”; the mutagenic call (Test System: MOUSE LYMPHOMA, Strain/Indicator: L5178Y (TK+/TK-), Metabolic Activation: NONE, Method: SUSPENSION/PLATE) is “active; positive. reevaluation of results: positive”; the mutagenic call (Test System: MOUSE LYMPHOMA, Strain/Indicator: L5178Y (TK+/TK-), Metabolic Activation: RAT, LIVER, S-9, AROCLOR 1254, Method: SUSPENSION/PLATE) is “active; positive. reevaluation of results: positive”.

Consider `O=C1C=C2c3ccccc3-c3cccc(c32)C1=O`, for which the mutagenic call by setting is: (Test System: AMES SALMONELLA TYPHIMURIUM, Strain/Indicator: TM677, Metabolic Activation: NONE, Method: PREINCUBATION) “active; positive”; (Test System: AMES SALMONELLA TYPHIMURIUM, Strain/Indicator: TM677, Metabolic Activation: RAT, LIVER, POSTMITOCHONDRIAL SUPERNATANT, AROCLOR 1254, Method: PREINCUBATION) “active; positive”.

`Nc1ccc(-c2ccc(N)c(F)c2)cc1F`: the mutagenic call is “active; positive” (Test System: AMES SALMONELLA TYPHIMURIUM, Strain/Indicator: TA98(1,8-DNP6), Metabolic Activation: HAMSTER, LIVER, S-9, Method: PREINCUBATION); “active; positive” (Test System: AMES SALMONELLA TYPHIMURIUM, Strain/Indicator: TA98(1,8-DNP6), Metabolic Activation: NONE, Method: PREINCUBATION); “active; positive” (Test System: AMES SALMONELLA TYPHIMURIUM, Strain/Indicator: TA98(1,8-DNP6), Metabolic Activation: NONE, Method: STANDARD PLATE); “active; positive” (Test System: AMES SALMONELLA TYPHIMURIUM, Strain/Indicator: TA98(1,8-DNP6), Metabolic Activation: S-9, Method: STANDARD PLATE); “active; positive” (Test System: AMES SALMONELLA TYPHIMURIUM, Strain/Indicator: TA98, Metabolic Activation: HAMSTER, LIVER, S-9, Method: PREINCUBATION); “active; positive” under setting [3]. The mutagenic call was “active; positive” under setting [8]; “active; positive” (Test System: AMES SALMONELLA TYPHIMURIUM, Strain/Indicator: TA98, Metabolic Activation: S-9, Method: STANDARD PLATE); “inactive; negative” under setting [9]; “active; positive” (Test System: AMES SALMONELLA TYPHIMURIUM, Strain/Indicator: TA100, Metabolic Activation: S-9, Method: STANDARD PLATE).

As for `Cc1ccc(OCC2CO2)cc1` (configuration not stated), the mutagenic call reads like this: under setting [4], “active; positive”; (Test System: AMES SALMONELLA TYPHIMURIUM, Strain/Indicator: TA100, Metabolic Activation: RAT, LIVER, S-9, AROCLOR 1254 (10%), Method: PREINCUBATION) “active; positive”; (Test System: AMES SALMONELLA TYPHIMURIUM, Strain/Indicator: TA1535, Metabolic Activation: HAMSTER, LIVER, S-9, AROCLOR 1254 (10%), Method: PREINCUBATION) “active; positive”; under setting [7], “active; positive”; (Test System: AMES SALMONELLA TYPHIMURIUM, Strain/Indicator: TA1535, Metabolic Activation: RAT, LIVER, S-9, AROCLOR 1254 (10%), Method: PREINCUBATION) “active; positive”.

For `CC(C)CCOC(=O)CC(C)C`, the mutagenic call is, setting by setting: under setting [1], “inactive; negative”; under setting [2], “inactive; negative”; under setting [5], “inactive; negative”; under setting [6], “inactive; negative”.

Consider `CCC(=O)N(O)c1ccc2ccccc2c1`, for which the mutagenic call under setting [3] is “inactive; negative”; the mutagenic call (Test System: AMES SALMONELLA TYPHIMURIUM, Strain/Indicator: TA98, Metabolic Activation: RAT, LIVER, CYTOSOL, Method: PREINCUBATION) was “inactive; negative”; the mutagenic call (Test System: AMES SALMONELLA TYPHIMURIUM, Strain/Indicator: TA98, Metabolic Activation: RAT, LIVER, MICROSOMES, Method: PREINCUBATION) was “active; positive”.

For `C1=CCCCC1`, the mutagenic call under setting [8] is “inactive; negative”; the mutagenic call (Test System: AMES SALMONELLA TYPHIMURIUM, Strain/Indicator: TA98, Metabolic Activation: RAT LIVER S-9, SOVOL, Method: STANDARD PLATE) was “inactive; negative”; the mutagenic call under setting [9] was “inactive; negative”; the mutagenic call (Test System: AMES SALMONELLA TYPHIMURIUM, Strain/Indicator: TA100, Metabolic Activation: RAT LIVER S-9, SOVOL, Method: STANDARD PLATE) is “inactive; negative”; the mutagenic call (Test System: Ames Salmonella typhimurium, Strain/Indicator: TA98, Metabolic Activation: None, Method: Preincubation) was “inactive; negative”; the mutagenic call (Test System: Ames Salmonella typhimurium, Strain/Indicator: TA98, Metabolic Activation: Rat, Liver, S9, Sodium phenobarbital and 5,6-benzoflavone (10%), Method: Preincubation) is “inactive; negative”. For the same compound, the mutagenic call is, setting by setting: (Test System: Ames Salmonella typhimurium, Strain/Indicator: TA100, Metabolic Activation: None, Method: Preincubation) “inactive; negative”; (Test System: Ames Salmonella typhimurium, Strain/Indicator: TA100, Metabolic Activation: Rat, Liver, S9, Sodium phenobarbital and 5,6-benzoflavone (10%), Method: Preincubation) “inactive; negative”; (Test System: Ames Salmonella typhimurium, Strain/Indicator: TA1535, Metabolic Activation: None, Method: Preincubation) “inactive; negative”; (Test System: Ames Salmonella typhimurium, Strain/Indicator: TA1535, Metabolic Activation: Rat, Liver, S9, Sodium phenobarbital and 5,6-benzoflavone (10%), Method: Preincubation) “inactive; negative”; (Test System: Ames Salmonella typhimurium, Strain/Indicator: TA1537, Metabolic Activation: None, Method: Preincubation) “inactive; negative”; (Test System: Ames Salmonella typhimurium, Strain/Indicator: TA1537, Metabolic Activation: Rat, Liver, S9, Sodium phenobarbital and 5,6-benzoflavone (10%), Method: Preincubation) “inactive; negative”. The mutagenic call is, setting by setting: (Test System: Ames Salmonella typhimurium, Strain/Indicator: TA2637, Metabolic Activation: None, Method: Preincubation) “active; positive”; (Test System: Ames Salmonella typhimurium, Strain/Indicator: TA2637, Metabolic Activation: Rat, Liver, S9, Sodium phenobarbital and 5,6-benzoflavone (10%), Method: Preincubation) “inactive; negative”; (Test System: E. coli, Strain/Indicator: WP2uvrA/pKM101, Metabolic Activation: None, Method: Preincubation) “inactive; negative”; (Test System: E. coli, Strain/Indicator: WP2uvrA/pKM101, Metabolic Activation: Rat, Liver, S9, Sodium phenobarbital and 5,6-benzoflavone (10%), Method: Preincubation) “inactive; negative”.
